According to publication PMC7463913, “The Interaction of Fluorinated Glycomimetics with DC-SIGN: Multiple Binding Modes Disentangled by the Combination of NMR Methods and MD Simulations” (Pharmaceuticals, 2020):

Key:
DC-SIGN (ECD) [1] = target: T1, DC-SIGN (ECD) (Homo sapiens, UniProt Q9NNX6); experiment: 19F-R2 filtered NMR KD determination of the spy molecule; format: binding; conditions: spy molecule with DC-SIGN; fast-exchange regime, τCPMG 1 ms
T1 construct: DC-SIGN full extracellular domain (ECD, residues 70-404, Thermo Fischer Scientific); made in house
T1 sequence (Q9NNX6 70-404): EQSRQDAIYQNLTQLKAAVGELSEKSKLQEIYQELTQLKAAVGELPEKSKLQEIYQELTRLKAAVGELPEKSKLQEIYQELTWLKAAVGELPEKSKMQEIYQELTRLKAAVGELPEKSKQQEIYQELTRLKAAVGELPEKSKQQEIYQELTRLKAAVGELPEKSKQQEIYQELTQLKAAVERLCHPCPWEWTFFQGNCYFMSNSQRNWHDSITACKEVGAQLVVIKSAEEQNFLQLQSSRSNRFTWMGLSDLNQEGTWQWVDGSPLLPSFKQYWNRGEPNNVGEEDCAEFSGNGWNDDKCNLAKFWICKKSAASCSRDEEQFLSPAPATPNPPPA
Experimental: (§1) For KD estimation of 6-deoxy-6-F-Man (the spy-molecule), the free evolution delay was set to an optimized value τ=1 ms , after using relaxation dispersion experiments to assure a negligible chemical exchange contribution to R2,obs (Figure S1a). The KI of 1, 1b-d, 2, and 3 with DC-SIGN (ECD) was determined by titration experiments in a competitive fashion. Increasing amounts of the competitor molecules (compounds 1, 1b-d, 2, and 3) were added to a solution mixture of the spy molecule and the protein in each case, calculating the R2,obs of the spy molecule at each competitor concentration while the ratio [Spy-molecule]/[Protein] is fixed (40:1) (Figure S1c).
(§2) 19F-R2 filtered experiments
The KD of compounds 1, 1b-d, 2 and 3 was estimated applying a 19F-R2 filtered approach. […] Relaxation rates R2 were determined employing a CPMG pulse sequence, by fitting the observed 19F signal intensity to the exponential decay curve: […]
(§3) [ܲ]் + [ܮ]் + ܭ஽ − ඥ([ܲ]் + [ܮ]் + ܭ஽)ଶ − 4[ܲ]்[ܮ]் (3) where [ܲ]் and [ܮ]் are the total protein and ligand concentrarion respectively, [ܴ]ଶ,௙ and [ܴ]ଶ,௕ are the relaxation rates in the free and bound states, ݌௕ is the fraction of bound ligand and ܭ஽ the dissociation constant of the protein-ligand complex. [ܴ]ଶ,௙ of 6-F-ManαOMe was measured in absence of the lectin, and Equation 2 was used to estimate ܭ஽and [ܴ]ଶ,௕ for the […]

DC-SIGN (ECD) [2] = target: T1, DC-SIGN (ECD); experiment: competitive 19F-R2 filtered NMR experiments (spy molecule 6-F-ManαOMe); format: binding; conditions: for weaker ligand relative to best binders (1b, 1c, 1d): fold loss of affinity from KI values; for Ki: non-linear least squares fitting, [6-F-ManαOMe] 400 µM, [DC-SIGN (CRDs)] 10 µM, 298 K, pH 8.0; for loss in affinity versus the trisaccharide 1: fluorinated disaccharides versus 1
Text: In order to gain insights into the effects that the different fluorination patterns may have in the binding event, the affinities of 1b, the natural analogue of 1, as well as 1c and 1d, two partially fluorinated trisaccharides, were also estimated. (Table 2, Figure S1).
as §1, §2
The KD of compounds 1, 1b-d, 2 and 3 was estimated applying a 19F-R2 filtered approach. 6-F-ManαOMe, which weakly binds to DC-SIGN, was selected as the spy molecule. Relaxation rates R2 were determined employing a CPMG pulse sequence, by fitting the observed 19F signal intensity to the exponential decay curve:
ܫ(ݐ) = ܫ଴݁ି௧ோమ = ܫ଴݁ି௡ଶఛோమ (1) where ܫ(ݐ) refers to intensity at time ݐ, ܫ଴ is intensity at ݐ = 0, and ܴଶ is the transversal relaxation rate (ܴଶ = 1/ܶଶ).
In the limit of fast-exchange where the exchange contribution to the observed transversal relaxation rate ܴଶ,௢௕௦ is insignificant (Figure S1, a)), the following equations apply:
ܴଶ,௢௕௦ = ܴଶ,௙ + ൫ܴଶ,௕ − ܴଶ,௙൯݌௕ (2)
as §3
Then, ܭூ of compounds 1, 1b-d, 2 and 3 was measured in a competitive manner. ܴଶ,௢௕௦ of 6-F-ManαOMe (spy molecule) in solution with DC-SIGN ECD was monitored at 5 different competitor concentrations ([ܫ]) in each case with a fixed [ܲ]்/[ܮ]் ratio (Figure S1, c)), to derive ܭூ by fitting to Equation 2 with ݌௕ as defined in Equations (4) and (5) (Table 2):
݌௕ = 3ܭ + 2 cos൫ߠൗ ൯ √ܽଶ − 3ܾ − ܽ (4)
ߠ = cos ൬ ଶඥ(௔మିଷ௕)య ൰, ܽ = ܭ஽ + ܭூ + [ܮ]் + [ܫ]் − [ܲ]், ܾ = ([ܫ]் − [ܲ]்)ܭ஽ + ([ܮ]் − [ܲ]்)ܭ஽ + ܭூܭ஽, ܿ = −ܭூܭ஽[ܲ]்
Figure S1. 19F-R2 filtered experiments. a) Relaxation dispersion experiment for 6-F-ManαOMe (the spy molecule). R2,obs of the 19F nucleus is measured for different values of ωCPMG. Ligand and protein sample concentrations were: [6-F-ManαOMe] = 400 µM, [DC-SIGN (CRDs)] = 10 µM (counting concentration of CRDs, i.e, 4 CRDs per DC-SIGN ECD tetramer). For ωCPMG > 1000 s-1, there is virtually negligible exchange contribution to R2. Therefore, all the subsequent R2 filtered experiments were carried out with τCPMG = 1/ωCPMG = 1 ms. b) KD determination of 6-F-ManαOMe with DC-SIGN. R2,obs was measured for increasing amounts of [6-F-ManαOMe]/[DC-SIGN (CRDs)] (blue dots). KD and R2,b were obtained from fitting to Equation 2, which is valid in the fast-exchange regime (Rex = 0) [39a]. The predicted values at each [6-F-ManαOMe]/[DC-SIGN (CRDs)] are shown as red stars for comparison c) Titration curves showing the variation in 19F-R2,obs of the spy molecule 6-F-ManαOMe, when increasing amounts of the competitors (I) 1, 1b-d, 2 and 3 are added to a mixture [6-F-ManαOMe] = 400 µM, [DC-SIGN (CRDs)] = 10 µM. […]

DC-SIGN (ECD tetramer) = target: T2, DC-SIGN (ECD tetramer) (Homo sapiens, UniProt Q9NNX6); experiment: 2D-STD-TOCSYreF NMR experiments (binding epitope); conditions: for total relative STD per Man ring: normalized to the global observed STD; for % STD (normalized): normalized to largest STD in each molecule
T2 construct: DC-SIGN full extracellular domain (ECD, residues 70-404, Thermo Fischer Scientific); made in house
T2 sequence (Q9NNX6 70-404): T1 sequence (Q9NNX6 70-404)
Text: The interaction between DC-SIGN and the three Man-based 2-deoxy-fluoro oligosaccharides (Figure 1) was first analyzed using 2D-STD-TOCSYreF experiments (Figure 2). A long TOCSY mixing time (128 ms) was used to extend the polarization to all protons within the same spin system for each Man ring. The enhanced resolution of the 2D-TOCSYreF allowed the assignment of most of the STD NMR cross peaks with high reliability for the three fluorinated compounds (Figure 2 and Table 1). Generally speaking, the inherent loss of sensitivity due to the heteronuclear reF transfer in the 2D-STD-TOCSYreF experiments is overcompensated by the gained spectral dispersion.
Figure 2 2D-TOCSYreF off-resonance spectrum (red) and 2D-STD-TOCSYreF peaks (blue) obtained for 1 (top panel), 2 (central panel) and 3 (bottom panel) in the presence of DC-SIGN. The ^19F NMR frequencies are given in the abscissa axis and the ^1H NMR frequencies in the ordinate axis. The STD cross peaks are shifted to high field in the ^19F frequency to facilitate visual inspection. Every blue cross peak corresponds to the STD NMR intensity of the particular ^1H NMR nucleus in a given monosaccharide, which is encoded by the ^19F frequency. The ligand concentration was 1.4 mM in each case, with 9.14 μM of DC-SIGN tetramer, thus containing four carbohydrate recognition domains (CRD) (ligand/protein-CRD ratio is 38:1). The on-resonance irradiation was set to 0.85 ppm, with a saturation time of 2 s. The relative STD values, shown by colored circles, are obtained from the ratio between the corresponding peaks in the 2D STD-TOCSY-reF and 2D-TOCSYreF off-resonance spectra, and normalized to the largest STD in each molecule. The circles connected by a colored thin line correspond to overlapped signals in the spectrum, so that the STD intensity is shown as ‘spread’ between the corresponding ^1H nuclei (meaning each of these protons may contribute or not to the total STD observed). In this case, the added STD intensity is given. The total relative STD per Man ring for each molecule is also specified with a colored tag, using the same color code as the circles. TEXT PRINTED IN THE PICTURE: 1: % STD (Man II): 44 %; % STD (Man III): 9 %; % STD (Man I): 47 % | 2: % STD (Man III): 11 %; % STD (Man I): 89 % | 3: % STD (Man II): 70 %; % STD (Man III): 30 % DOUBTS OF THE COPYIST ABOUT THIS PICTURE: The percent tags are matched to the Man I/II/III rings by position and colour only. The measure '% STD' is printed only at the colour bar. / The percent tags are relative STD-NMR values per sugar ring (binding epitope), so it is uncertain whether they count as a result or belong to the excluded spectra.
Samples for the 2D STD-TOCSY-reF contained 9.14 µM ECD (tetramer) and 153 eq. of ligand (1.4 mM, the ratio ligand/protein (CRD) is 38:1) in each case. The 2D STD-TOCSY-reF setup consists on a proton saturation transfer scheme (^1Hprotein→^1Hligand-STD) with subsequent evolution through JHH couplings (TOCSY), to finally refocus the STD-edited information in the ^19F dimension (reF). As STD parameters, selective saturation was applied for 2 s using 90º PC9 pulses of 10 ms length, with on-resonance saturation set at 0.85 ppm and off-resonance at 60 ppm. The TOCSY mixing time used was 128 ms, and the corresponding JHF evolution and refocusing delays in the reF module were Δ^H = 10.4 ms and Δ^F = 6 ms, respectively. The relative saturation values (%) were calculated from the ratio between peaks in the 2D STD-TOCSY-reF spectrum and the corresponding ones in the off-resonance TOCSY-reF spectrum.

[3] = proton ManI-1, ligand 1.4 mM, 9.14 µM tetramer, 2 s saturation at 0.85 ppm

Row | weaker ligand relative to best binders (1b, 1c, 1d) (DC-SIGN (ECD) [2]) | Ki (DC-SIGN (ECD) [2]) | total relative STD per Man ring (DC-SIGN (ECD tetramer); Man I ring) | total relative STD per Man ring (DC-SIGN (ECD tetramer); Man II ring) | total relative STD per Man ring (DC-SIGN (ECD tetramer); Man III ring) | % STD (normalized) (DC-SIGN (ECD tetramer); overlapped protons ManII-3/6) | % STD (normalized) (DC-SIGN (ECD tetramer); overlapped protons ManII-4/5) | % STD (normalized) (DC-SIGN (ECD tetramer); [3]) | % STD (normalized) (DC-SIGN (ECD tetramer); proton ManI-2) | % STD (normalized) (DC-SIGN (ECD tetramer); proton ManI-3) | % STD (normalized) (DC-SIGN (ECD tetramer); proton ManII-1) | % STD (normalized) (DC-SIGN (ECD tetramer); proton ManII-2) | loss in affinity versus the trisaccharide 1 (DC-SIGN (ECD) [2]) | % STD (normalized) (DC-SIGN (ECD tetramer); proton ManIII-1) | % STD (normalized) (DC-SIGN (ECD tetramer); proton ManIII-2) | SMILES | other results
1 | – | – | – | – | – | – | – | – | – | – | – | – | – | – | – | CO[C@H]1O[C@H](CF)[C@@H](O)[C@H](O)[C@@H]1O [6-F-ManαOMe] | Kd (DC-SIGN (ECD) [1]): 1.3 mM
2 | two-fold weaker | 2.5 mM | 47% | 44% | 9% | 47% | 52% | 16% | 42% | 100% | 19% | 31% | – | – | – | CO[C@H]1O[C@H](CO[C@H]2O[C@H](CO)[C@@H](O)[C@H](O)[C@@H]2F)[C@@H](O)[C@H](O[C@H]2O[C@H](CO)[C@@H](O)[C@H](O)[C@@H]2F)[C@@H]1F [compound 1] | binding free energy difference (DC-SIGN (ECD) [2]; corresponding to the variation in affinity of 1 versus 1b): ca. 1 kcal/mol; variation in binding affinity (DC-SIGN (ECD) [2]; trifluorinated 1 versus 1b): 2.5 fold; % STD (normalized) (DC-SIGN (ECD tetramer); overlapped protons ManIII-1/2): 31%
3 | nine- | 9.6 mM | 89% | – | 11% | – | – | 15% | 33% | 74% | – | – | ca. four-fold | 17% | 14% | CO[C@H]1O[C@H](CO)[C@@H](O)[C@H](O[C@H]2O[C@H](CO)[C@@H](O)[C@H](O)[C@@H]2F)[C@@H]1F [compound 2] | % STD (normalized) (DC-SIGN (ECD tetramer); proton ManI-4): 100%; % STD (normalized) (DC-SIGN (ECD tetramer); proton ManI-5): 22%
4 | four-fold weaker | 4 mM | – | 70% | 30% | 86% | 100% | – | – | – | 31% | 45% | ca. two-fold | 33% | 31% | CO[C@H]1O[C@H](CO[C@H]2O[C@H](CO)[C@@H](O)[C@H](O)[C@@H]2F)[C@@H](O)[C@H](O)[C@@H]1F [compound 3] | % STD (normalized) (DC-SIGN (ECD tetramer); overlapped protons ManIII-3/4/5/6): 47%
